From the NIST ThermoML archive (doi:10.1016/j.jct.2006.06.001)
Numbers after ± are expanded uncertainties.

Experiments:
[1] = xn = mol fraction of the nth substance listed; details: 81.5 kPa, Liquid
[2] = 81.5 kPa, Liquid

COCCO [2-methoxyethan-1-ol] + CC(O)CO
mass density [kg/m3], [1]
Details | 293.15 K | 303.15 K | 313.15 K | 323.15 K | 333.15 K | 343.15 K
x1 = 0.0745 | 1030.87 ± 0.23 | 1023.34 ± 0.22 | 1015.67 ± 0.21 | 1007.87 ± 0.2 | 999.89 ± 0.19 | 991.75 ± 0.2
x1 = 0.1669 | 1024.12 ± 0.22 | 1016.42 ± 0.21 | 1008.59 ± 0.2 | 1000.6 ± 0.19 | 992.48 ± 0.2 | 984.19 ± 0.21
x1 = 0.2365 | 1019.06 ± 0.21 | 1011.22 ± 0.2 | 1003.26 ± 0.19 | 995.17 ± 0.19 | 986.94 ± 0.2 | 978.54 ± 0.21
x1 = 0.3194 | 1013.05 ± 0.2 | 1005.07 ± 0.19 | 996.96 ± 0.19 | 988.73 ± 0.2 | 980.35 ± 0.21 | 971.81 ± 0.22
x1 = 0.3946 | 1007.6 ± 0.2 | 999.48 ± 0.19 | 991.25 ± 0.2 | 982.88 ± 0.21 | 974.38 ± 0.22 | 965.73 ± 0.23
x1 = 0.4791 | 1001.49 ± 0.19 | 993.22 ± 0.2 | 984.85 ± 0.2 | 976.34 ± 0.21 | 967.7 ± 0.23 | 958.9 ± 0.24
x1 = 0.5625 | 995.51 ± 0.19 | 987.1 ± 0.2 | 978.58 ± 0.21 | 969.93 ± 0.22 | 961.14 ± 0.23 | 952.2 ± 0.24
x1 = 0.6331 | 990.47 ± 0.2 | 981.94 ± 0.21 | 973.3 ± 0.22 | 964.53 ± 0.23 | 955.63 ± 0.24 | 946.55 ± 0.25
x1 = 0.7266 | 983.82 ± 0.21 | 975.12 ± 0.22 | 966.32 ± 0.23 | 957.38 ± 0.24 | 948.31 ± 0.25 | 939.08 ± 0.26
x1 = 0.8081 | 978.11 ± 0.21 | 969.27 ± 0.22 | 960.32 ± 0.23 | 951.24 ± 0.25 | 942.02 ± 0.26 | 932.64 ± 0.27
x1 = 0.8752 | 973.43 ± 0.22 | 964.47 ± 0.23 | 955.4 ± 0.24 | 946.21 ± 0.25 | 936.87 ± 0.27 | 927.36 ± 0.28
x1 = 0.9658 | 967.23 ± 0.23 | 958.12 ± 0.24 | 948.88 ± 0.25 | 939.52 ± 0.26 | 930.01 ± 0.28 | 920.33 ± 0.29

COCCO [2-methoxyethan-1-ol] + CCCO
mass density [kg/m3], [1]
Details | 293.15 K | 303.15 K | 313.15 K | 323.15 K | 333.15 K | 343.15 K
x1 = 0.0845 | 817.73 ± 0.42 | 809.55 ± 0.43 | 801.23 ± 0.44 | 792.73 ± 0.45 | 783.99 ± 0.47 | 774.97 ± 0.48
x1 = 0.1559 | 829.58 ± 0.4 | 821.29 ± 0.41 | 812.86 ± 0.42 | 804.25 ± 0.44 | 795.42 ± 0.45 | 786.31 ± 0.47
x1 = 0.2391 | 843.36 ± 0.38 | 834.94 ± 0.39 | 826.39 ± 0.41 | 817.66 ± 0.42 | 808.72 ± 0.43 | 799.51 ± 0.45
x1 = 0.3146 | 855.77 ± 0.36 | 847.26 ± 0.38 | 838.61 ± 0.39 | 829.78 ± 0.4 | 820.75 ± 0.42 | 811.47 ± 0.43
x1 = 0.4015 | 869.91 ± 0.34 | 861.29 ± 0.36 | 852.53 ± 0.37 | 843.61 ± 0.38 | 834.47 ± 0.4 | 825.11 ± 0.41
x1 = 0.479 | 882.45 ± 0.33 | 873.74 ± 0.34 | 864.89 ± 0.35 | 855.88 ± 0.37 | 846.68 ± 0.38 | 837.25 ± 0.4
x1 = 0.5597 | 895.42 ± 0.31 | 886.62 ± 0.32 | 877.69 ± 0.34 | 868.6 ± 0.4 | 859.32 ± 0.36 | 849.83 ± 0.38
x1 = 0.6365 | 907.69 ± 0.29 | 898.82 ± 0.31 | 889.81 ± 0.32 | 880.65 ± 0.33 | 871.31 ± 0.35 | 861.76 ± 0.36
x1 = 0.7183 | 920.73 ± 0.28 | 911.78 ± 0.29 | 902.7 ± 0.3 | 893.47 ± 0.32 | 884.08 ± 0.33 | 874.48 ± 0.35
x1 = 0.7939 | 932.73 ± 0.26 | 923.71 ± 0.28 | 914.56 ± 0.29 | 905.28 ± 0.3 | 895.83 ± 0.32 | 886.17 ± 0.33
x1 = 0.8775 | 945.88 ± 0.25 | 936.8 ± 0.26 | 927.59 ± 0.27 | 918.24 ± 0.29 | 908.74 ± 0.3 | 899.05 ± 0.32
x1 = 0.9553 | 957.99 ± 0.24 | 948.84 ± 0.25 | 939.57 ± 0.26 | 930.18 ± 0.27 | 920.63 ± 0.29 | 910.9 ± 0.3

CCCO [propan-1-ol]
[2]
Details | mass density [kg/m3]
293.15 K | 803.61 ± 0.23
303.15 K | 795.57 ± 0.23
313.15 K | 787.39 ± 0.24
323.15 K | 779.02 ± 0.24
333.15 K | 770.42 ± 0.25
343.15 K | 761.51 ± 0.25

CC(C)O [propan-2-ol]
[2]
Details | mass density [kg/m3]
293.15 K | 785.1 ± 0.49
303.15 K | 776.63 ± 0.5
313.15 K | 767.85 ± 0.52
323.15 K | 758.68 ± 0.53
333.15 K | 749.06 ± 0.54
343.15 K | 738.91 ± 0.56
